Measurements as given in ChEMBL document CHEMBL3217462, “FP Tethering: a screening technique to rapidly identify compounds that disrupt protein-protein interactions” (Medchemcomm, 2014).

Columns and labels:
Homo sapiens [1] = species: Homo sapiens; test: Displacement of fluorescent-labelled pKID from CBP KIX domain H602C mutant (unknown origin) after 1 hr by Fluorescent polarization assay; details: concentration not given here
Homo sapiens [2] = species: Homo sapiens; test: Binding affinity to CBP KIX domain H602C mutant (unknown origin) after 1 hr by Fluorescent polarization assay
Homo sapiens [3] = species: Homo sapiens; test: Binding affinity to CBP KIX domain H602C mutant (unknown origin) assessed as increase in binding affinity constant for MLL by fluorescence polarization tethering assay
Homo sapiens [4] = species: Homo sapiens; test: Binding affinity to CBP KIX domain H602C mutant (unknown origin) assessed as increase in binding affinity constant for phosphorylated KID by fluorescence polarization tethering assay
Homo sapiens [5] = species: Homo sapiens; test: Binding affinity to CBP KIX domain H602C mutant (unknown origin) assessed as increase in binding affinity constant for c-Myb by fluorescence polarization tethering assay
Homo sapiens [6] = species: Homo sapiens; test: Displacement of fluorescent-labelled MLL from CBP KIX domain N627C mutant (unknown origin) at 250 uM after 1 hr by Fluorescent polarization assay
Homo sapiens [7] = species: Homo sapiens; test: Binding affinity to CBP KIX domain N627C mutant (unknown origin) after 1 hr by Fluorescent polarization assay
[8] = (§1) Displacement of fluorescent-labelled MLL from CBP KIX domain N627C mutant (unknown origin) after 1 hr by Fluorescent polarization assay; set-up: species or system Homo sapiens
Homo sapiens [9] = species: Homo sapiens; test: as §1

Compound | inhibition (Homo sapiens [1]) [%] | Activity (Homo sapiens [2]) [%] | fold change (FC) (Homo sapiens [3]) | fold change (FC) (Homo sapiens [4]) | fold change (FC) (Homo sapiens [5]) | inhibition (Homo sapiens [6]) [%] | Activity (Homo sapiens [7]) [%] | IC50 [8] [µM] | inhibition (Homo sapiens [9])
CN(C)CCSSCCNC(=O)C1CCN(C(=O)c2ccccc2Nc2ccccc2)CC1 | 22 | 15 |  |  |  |  |  |  | 
CC(=O)Nc1ccc(Cl)c(NC(=O)NCCSSCCN(C)C)c1 | 24 | 71 | 9 | 6.5 | 9 |  |  |  | 
COc1ccc2cc([C@H](C)C(=O)NCCSSCCN)ccc2c1 |  |  |  |  |  | 32 | 36 |  | 
CN(C)CCSSCCC(=O)N1CCC(O)(c2ccc(Cl)c(C(F)(F)F)c2)CC1 |  |  |  |  |  | 44 | 67 | 68 | Dose-dependent effect
